Assay results reported in US6737435B1, “Indole derivatives and their use as MCP-1 antagonist” (AstraZeneca AB, priority 1999, dated 2004).

How the values were obtained:
THP-1 cells [1] = experiment: hMCP-1 mediated chemotaxis; type: cell-based, human; conditions: biphasic response
Experimental: In vitro chemotaxis assays were performed using the human monocytic cell line THP-1. Cell migration through polycarbonate membranes was measured by enumerating those passing through either directly by Coulter counting or indirectly by use of a colourimetric viability assay measuring the cleavage of a tetrazolium salt by the mitochondrial respiratory chain (Scudiero D. A. et al. 1988, Cancer Res., 48, 4827-4833).
Chemoattractants were introduced into a 96-well microtitre plate which forms the lower well of a chemotaxis chamber fitted with a PVP-free 5 μm poresize polycarbonate adhesive framed filter membrane (NeuroProbe MB series, Cabin John, Md. 20818, USA) according to the manufacturer's instructions. […] The plate was incubated at 37° C. for 3 h and the absorbance of the soluble formazan product was read on a microtitre plate reader at 450 nm. The data was input into a spreadsheet, corrected for any random migration in the absence of chemoattractant and the average absorbance values, standard error of the mean, and significance tests were calculated. hMCP-1 induced concentration dependent cell migration with a characteristic biphasic response, maximal […]. […]

MCP-1 receptor B (CCR2B) = target: T1, MCP-1 receptor B (CCR2B) (Homo sapiens, UniProt P41597); experiment: hMCP-1 receptor binding assay (125I-MCP-1, CHO-CCR2B cell membranes)
T1 construct: expressed in transfected cells; host or cells: CHO-K1 (clone 7, CHO-CCR2B), stably transfected with pCDNA3/CCR2B; membrane fragments
T1 sequence (P41597 1-360 isoform P41597-2): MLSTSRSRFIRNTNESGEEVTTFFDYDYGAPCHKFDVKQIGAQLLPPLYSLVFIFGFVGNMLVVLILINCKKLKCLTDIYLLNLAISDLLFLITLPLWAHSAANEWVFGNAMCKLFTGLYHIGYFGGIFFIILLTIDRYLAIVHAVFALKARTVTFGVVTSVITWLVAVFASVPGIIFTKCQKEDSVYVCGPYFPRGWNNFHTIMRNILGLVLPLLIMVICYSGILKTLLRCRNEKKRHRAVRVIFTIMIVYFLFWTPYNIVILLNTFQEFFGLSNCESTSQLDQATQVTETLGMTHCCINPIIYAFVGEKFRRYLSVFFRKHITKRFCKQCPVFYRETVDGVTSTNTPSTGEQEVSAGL
From the text: The MCP-1 receptor B (CCR2B) cDNA was cloned by PCR from THP-1 cell RNA using suitable oligonucleotide primers based on the published MCP-1 receptor sequences (Charo et al., 1994, Proc. Natl. Acad. Sci. USA, 91, 2752). The resulting PCR products were cloned into vector PCR-II™ (InVitrogen, San Diego, Calif.). Error free CCR2B cDNA was subcloned as a Hind III-Not I fragment into the eukaryotic expression vector pCDNA3 (InVitrogen) to generate pCDNA3/CC-CKR2A and pCDNA3/CCR2B respectively.
Linearised pCDNA3/CCR2B DNA was transfected into CHO-K1 cells by calcium phosphate precipitation (Wigler et al., 1979, Cell, 16, 777). Transfected cells were selected by the addition of Geneticin Sulphate (G418, Gibco BRL) at 1 mg/ml, 24 hours after the cells had been transfected. Preparation of RNA and Northern blotting were carried out as described previously (Needham et al., 1995, Prot. Express. Purific., 6, 134). CHO-K1 clone 7 (CHO-CCR2B) was identified as the highest MCP-1 receptor B expresser.
CHO-CCR2B cells were grown in DMEM supplemented with 10% foetal calf serum, 2 mM glutamine, 1×Non-Essential Amino Acids, 1×Hypoxanthine and Thymidine Supplement and Penicillin-Streptomycin (at 50 μg streptomycin/ml, Gibco BRL). Membrane fragments were prepared using cell lysis/differential centrifugation methods as described previously (Siciliano et al., 1990, J. Biol. Chem., 265, 19658). […]

THP-1 cells [2] = experiment: MCP-1 mediated calcium flux in THP-1 cells; type: cell-based, human; conditions: stimulation of THP-1 cells with hMCP-1, FURA-2; read-out: EC50 of rise in [Ca2+]i
Experimental: The human monocytic cell line THP-1 was grown in a synthetic cell culture medium RPMI 1640 supplemented with 10% foetal calf serum, 6 mM glutamine and Penicillin-Streptomycin (at 50 μg streptomycin/ml, Gibco BRL). THP-1 cells were washed in HBSS (lacking Ca^2+ and Mg^2+)+1 mg/ml BSA and resuspended in the same buffer at a density of 3×10^6 cells/ml. The cells were then loaded with […] FURA-2/AM for 30 min at 37° C., washed twice in HBSS, and resuspended at 1×10^6 cells/ml. THP-1 cell suspension (0.9 ml) was added to a 5 ml disposable cuvette containing a magnetic stirrer bar and 2.1 ml of prewarmed (37° C.) HBSS containing 1 mg/ml BSA, 1 mM MgCl2 and 2 mM CaCl2. The cuvette was placed in a fluorescence spectrophotometer (Perkin Elmer, Norwalk, Conn.) and preincubated for 4 min at 37° C. with stirring. Fluorescence was recorded over 70 sec and cells were stimulated by addition of hMCP-1 to the cuvette after 10 sec. [Ca^2+]i was measured by excitation at 340 nm and 380 nm alternately and subsequent measurement of the intensity of the fluorescence emission at 510 nm.
where the Kd for FURA-2 Ca^2+ complex at 37° C. was taken to be 224 nm. […]

- IC50 (MCP-1 receptor B (CCR2B); cold competition, 100 pM 125I-labeled MCP-1, CHO-CCR2B membrane fragments): 0.11 nM
- Kd (MCP-1 receptor B (CCR2B); equilibrium binding, CHO-CCR2B membrane fragments): 0.12 nM
- EC50 (THP-1 cells [2]): ~2 nM
Substance: MCP-1: Human Monocyte Chemoattractant Protein-1, the chemokine ligand of the CCR2 receptor
- concentration of maximal cell migration (THP-1 cells [1]): 0.5-1.0 nm
